This passage reports IC50 results from patent publication US9187424B1, “Aryl dihydropyridinones and piperidinone MGAT2 inhibitors” (Bristol-Myers Squibb Company, priority 2011, dated 2015).

SMILES strings stand for the structures.

The target of the test is Human MGAT-2 (Homo sapiens (Human), UniProt Q3SYC2). The experiment in a line: MGAT LCMS Assay (human MGAT-2).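 Further: diolein product quantified by LC/MS with positive APCI, expressed as peak area ratio versus an internal standard, and this ratio used to derive IC50.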 In kind it is biochemical. Particulars: human MGAT-2 membranes expressed in Sf9 cells; 2-oleoylglycerol and oleoyl-Coenzyme A; read-out: h-MGAT2 IC50 (nM) LCMS Assay.
Sequence of Human MGAT-2 (Q3SYC2 whole entry): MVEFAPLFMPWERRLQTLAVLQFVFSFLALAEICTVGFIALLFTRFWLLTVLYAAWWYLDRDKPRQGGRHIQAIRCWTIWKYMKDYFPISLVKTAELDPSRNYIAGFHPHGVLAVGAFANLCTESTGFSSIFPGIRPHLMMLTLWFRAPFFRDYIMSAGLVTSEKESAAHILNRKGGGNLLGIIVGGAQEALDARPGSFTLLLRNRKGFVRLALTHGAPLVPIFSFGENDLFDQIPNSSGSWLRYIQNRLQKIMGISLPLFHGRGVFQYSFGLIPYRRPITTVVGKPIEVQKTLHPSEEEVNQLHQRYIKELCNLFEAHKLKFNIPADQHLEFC

Take `COc1ccc(C2=C[C@](c3ccc(OCCCC(F)(F)F)cc3)(C(F)(F)F)NC(=O)C2(F)C#N)cc1` (single isomer, unassigned) [Example 15-2, 3-Fluoro-4-(4-methoxyphenyl)-2-oxo-6-(4-(4,4,4-trifluorobutoxyl)phenyl)-6-(trifluoromethyl)-1,2,3,6-tetrahydropyridine-3-carbonitrile]: the IC50 was 431 nM. The same measure for `COc1ccc(C2=C[C@@](c3ccc(OCCCC(F)(F)F)cc3)(C(F)(F)F)NC(=O)C2(F)C#N)cc1` (stereo in doubt) [Example 15-3, 3-Fluoro-4-(4-methoxyphenyl)-2-oxo-6-(4-(4,4,4-trifluorobutoxyl)phenyl)-6-(trifluoromethyl)-1,2,3,6-tetrahydropyridine-3-carbonitrile]: 756 nM; for `COc1ccc(C2=C[C@@](c3ccc(OCCCC(F)(F)F)cc3)(C(F)(F)F)NC(=O)C2(F)C#N)cc1` (stereo in doubt) [Example 15-4, 3-Fluoro-4-(4-methoxyphenyl)-2-oxo-6-(4-(4,4,4-trifluorobutoxyl)phenyl)-6-(trifluoromethyl)-1,2,3,6-tetrahydropyridine-3-carbonitrile]: 2050 nM; for `CCn1nnc(C2=C(c3ccc(C)cc3)CC(c3ccc(OCCCC(F)(F)F)cc3)(C(F)(F)F)NC2=O)n1` (stereo not shown) [Example 9, 3-(2-Ethyl-2H-tetrazol-5-yl)-4-p-tolyl-6-(4-(4,4,4-trifluorobutoxyl)phenyl)-6-(trifluoromethyl)-5,6-dihydropyridin-2(1H)-one]: 121 nM. For `Cc1ccc(C2=C(c3nn[nH]n3)C(=O)NC(c3cnn(CCCCC(F)(F)F)c3)(C(F)(F)F)C2)cc1` (stereo not shown) [Example 12, 3-(2H-Tetrazol-5-yl)-4-p-tolyl-6-(trifluoromethyl)-6-(1-(5,5,5-trifluoropentyl)-1H-pyrazol-4-yl)-5,6-dihydropyridin-2(1H)-one], the IC50 worked out at 374 nM. For `COc1ccc(C2=C(C#N)C(=O)NC(c3ccc(OCCCC(F)(F)F)cc3)(C(F)(F)F)C23CC3)cc1` (stereo not shown) [Example 14, 8-(4-Methoxyphenyl)-6-oxo-4-(4-(4,4,4-trifluorobutoxyl)phenyl)-4-(trifluoro-methyl)-5-azaspiro[2.5]oct-7-ene-7-carbonitrile], the IC50 worked out at 2050 nM. For the compound `Cc1ccc(C2=C(C(=O)Nc3cn(C)cn3)C(=O)NC(c3ccc(OCCCC(F)(F)F)cc3)(C(F)(F)F)C2)cc1` (stereo not shown) [Example 87], the IC50 was determined as 1220 nM.

Take `CCOc1ccc(C2=C(c3nn[nH]n3)C(=O)NC(c3ccc(OCCCC(F)(F)F)cc3)(C(F)(F)F)C2)cc1` (stereo not shown) [Example 92]: the IC50 was found to be 136 nM. `Cc1cccc(C2=C(c3nn[nH]n3)C(=O)NC(c3ccc(OCCCC(F)(F)F)cc3)(C(F)(F)F)C2)c1` (stereo not shown) [Example 96]: the 50% inhibitory concentration (IC50) was 1430 nM. With `O=C1NC(c2ccc(OCCCC(F)(F)F)cc2)(C(F)(F)F)CC(c2ccccc2)=C1c1nn[nH]n1` (stereo not shown) [Example 97], the concentration for half-maximal inhibition (IC50) worked out at 1200 nM. The same measure for `O=C1NC(c2ccc(OCCCC(F)(F)F)cc2)(C(F)(F)F)CC(c2cccc(Cl)c2)=C1c1nn[nH]n1` (stereo not shown) [Example 99]: 795 nM; for `COc1cccc(C2=C(c3nn[nH]n3)C(=O)NC(c3ccc(OCCCC(F)(F)F)cc3)(C(F)(F)F)C2)c1` (stereo not shown) [Example 100]: 1580 nM; for `COc1ccc(NC(=O)C2=C(c3ccc(C)cc3)CC(C)(C(=O)NCCCC(F)(F)F)NC2=O)cc1` (stereo not shown) [Example 102, N^5-(4-Methoxyphenyl)-2-methyl-6-oxo-4-p-tolyl-N^2-(4,4,4-trifluorobutyl)-1,2,3,6-tetrahydropyridine-2,5-dicarboxamide]: 1090 nM.

As to `Cc1ccc(C2=C(C(=O)Nc3ccc(C#N)cc3)C(=O)NC(c3ccc(OCCCC(F)(F)F)cc3)(C(F)(F)F)C2(F)F)cc1` (stereo not shown) [Example 103, N-(4-Cyanophenyl)-5,5-difluoro-2-oxo-4-p-tolyl-6-(4-(4,4,4-trifluorobutoxyl)phenyl)-6-(trifluoromethyl)-1,2,5,6-tetrahydropyridine-3-carboxamide], the IC50 amounted to 645 nM. The result for `Cc1ccc(C2=C(N)C(=O)N[C@@](c3ccc(OCCCC(F)(F)F)cc3)(C(F)(F)F)C2)cc1` [Example 104, (S)-3-Amino-4-p-tolyl-6-(4-(4,4,4-trifluorobutoxy)phenyl)-6-(trifluoromethyl)-5,6-dihydropyridin-2(1H)-one] reads 103 nM. The same measure for `Cc1ccc(C2=C(Oc3ccccc3)C(=O)N[C@@](c3ccc(OCCCC(F)(F)F)cc3)(C(F)(F)F)C2)cc1` [Example 106, (S)-3-Phenoxy-4-p-tolyl-6-(4-(4,4,4-trifluorobutoxy)phenyl)-6-(trifluoromethyl)-5,6-dihydropyridin-2(1H)-one]: 552 nM; for `CCCCOc1ccc(C2(C)CC(c3ccc(C)cc3)=C(C#N)C(=O)N2)cc1` (stereo not shown) [Example 107, 6-(4-Butoxyphenyl)-6-methyl-2-oxo-4-p-tolyl-1,2,5,6-tetrahydropyridine-3-carbonitrile]: 93 nM. `CCCCCCc1cnc(C2(C)CC(c3ccc(C)cc3)=C(C#N)C(=O)N2)o1` (stereo not shown) [Example 108, 6-(5-Hexyloxazol-2-yl)-6-methyl-2-oxo-4-p-tolyl-1,2,5,6-tetrahydropyridine-3-carbonitrile]: the IC50 came to 189 nM. The same measure for `CCCCCCCn1ccc(C2(C)CC(c3ccc(C)cc3)=C(C#N)C(=O)N2)n1` (stereo not shown) [Example 109, 6-(1-Heptyl-1H-pyrazol-3-yl)-6-methyl-2-oxo-4-p-tolyl-1,2,5,6-tetrahydropyridine-3-carbonitrile]: 39 nM; for `Cc1ccc(C2=C(n3ccnc3)C(=O)NC(c3ccc(OCCCC(F)(F)F)cc3)(C(F)(F)F)C2)cc1` (stereo not shown) [Example 114]: 704 nM; for `Cc1ccc(C2=C(C(O)Nc3ccccc3)C(=O)NC(c3ccc(OCCCC(F)(F)F)cc3)(C(F)(F)F)C2)cc1` (stereo not shown) [Example 115]: 40 nM. The result for `Cc1ccc(C2=C(C(=O)Nc3nn[nH]n3)C(=O)NC(c3ccc(OCCC(F)(F)F)cc3)(C(F)(F)F)C2)cc1` (stereo not shown) [Example 125] reads 282 nM; that for `Cc1ccc(C2=C(C(=O)Nc3cccc(C)c3)C(=O)NC(c3ccc(OCCC(F)(F)F)cc3)(C(F)(F)F)C2)cc1` (stereo not shown) [Example 128], 328 nM; that for `Cc1ccc(NC(=O)C2=C(c3ccc(C)cc3)CC(c3ccc(OCCC(F)(F)F)cc3)(C(F)(F)F)NC2=O)cc1` (stereo not shown) [Example 129], 222 nM.

In the case of `Cc1ccc(C2=C(C(=O)Nc3cc(C)[nH]n3)C(=O)NC(c3ccc(OCCC(F)(F)F)cc3)(C(F)(F)F)C2)cc1` (stereo not shown) [Example 131], the IC50 was 1050 nM. The result for `Cc1ccc(C2=C(C(=O)Nn3cnc([N+](=O)[O-])n3)C(=O)NC(c3ccc(OCCC(F)(F)F)cc3)(C(F)(F)F)C2)cc1` (stereo not shown) [Example 132] reads 163 nM; that for `Cc1ccc(C2=C(C(=O)Nc3ccc(-c4nn[nH]n4)cc3)C(=O)NC(c3ccc(OCCC(F)(F)F)cc3)(C(F)(F)F)C2(F)F)cc1` (stereo not shown) [Example 134], 168 nM. As to `Cc1ccc(NC(=O)C2=C(c3ccc(C)cc3)C(F)(F)C(c3ccc(OCCC(F)(F)F)cc3)(C(F)(F)F)NC2=O)cc1` (stereo not shown) [Example 135], the half-maximal inhibitory concentration (IC50) amounted to 778 nM. The result for `Cc1ccc(C2=C(C(=O)Nc3nnc(C(F)(F)F)o3)C(=O)NC(c3ccc(OCCC(F)(F)F)cc3)(C(F)(F)F)C2)cc1` (stereo not shown) [Example 136] reads 328 nM; that for `Cc1ccc(C2=C(C(=O)Nc3ccccc3OC(F)(F)F)C(=O)NC(c3ccc(OCCC(F)(F)F)cc3)(C(F)(F)F)C2)cc1` (stereo not shown) [Example 137], 252 nM. The same measure for `COc1ccc(C2(C(F)(F)F)NC(=O)C(C#N)=C(c3ccc(C)cc3)C2(F)F)cc1` (stereo not shown) [Example 138]: 5800 nM; for `COc1ccc(C2=C(c3ccc(C)cc3)C(F)(F)C(c3ccc(OCCCC(F)(F)F)cc3)(C(F)(F)F)NC2=O)cn1` (stereo not shown) [Example 140]: 356 nM; for `Cc1ccc(C2=C(C(=O)NC3CCCC3)C(=O)NC(c3ccc(OCCCC(F)(F)F)cc3)(C(F)(F)F)C2(F)F)cc1` (stereo not shown) [Example 141]: 459 nM. The result for `Cc1ccc(C2=C(NC(=O)c3cocn3)C(=O)NC(c3ccc(OCCCC(F)(F)F)cc3)(C(F)(F)F)C2)cc1` (stereo not shown) [Example 151] reads 5120 nM; that for `Cc1ccc(C2=C(NC(=O)c3cnco3)C(=O)NC(c3ccc(OCCCC(F)(F)F)cc3)(C(F)(F)F)C2)cc1` (stereo not shown) [Example 152], 252 nM.

For the compound `Cc1ccc(C2=C(NC(=O)c3cnccn3)C(=O)NC(c3ccc(OCCCC(F)(F)F)cc3)(C(F)(F)F)C2)cc1` (stereo not shown) [Example 153], the IC50 worked out at 247 nM. The same measure for `CCCCCCNC(=O)c1ccc(C2(C(F)(F)F)CC(c3ccc(C)cc3)=C(C(=O)Nc3ccc(OC)cc3)C(=O)N2)cc1` (stereo not shown) [Example 155]: 484 nM. The same measure for `Cc1ccc(C2=C(c3nnn[nH]3)C(=O)NC(c3ccc(OCCCC(F)(F)F)cc3)(C(F)(F)F)C2)c(C)c1` (stereo not shown) [Example 156]: 254 nM; for `Cc1ccc(C2=C(n3cnnn3)C(=O)NC(c3ccc(OCCCC(F)(F)F)cc3)(C(F)(F)F)C2(F)F)cc1` (stereo not shown) [Example 159]: 16700 nM.

As for `Cc1ccc(C2=C(C#N)C(=O)NC(c3ccc(OCCCC(F)(F)F)cc3)(C(F)(F)F)C2(F)F)cc1` (stereo not shown) [Example 160], the IC50 worked out at 5400 nM. The same measure for `CCCCCNC(=O)c1ccc(C2(C)CC(c3ccc(C)cc3)=C(C(=O)Nc3ccc(OC)cc3)C(=O)N2)cc1` (stereo not shown) [Example 161]: 1260 nM.

In the case of `COc1ccc(C(=O)NC2=C(c3ccc(C)cc3)C(F)(F)C(c3ccc(OCCC(F)(F)F)cc3)(C(F)(F)F)NC2=O)cc1` (stereo not shown) [Example 162], the IC50 was 214 nM. With `COc1ccc(C(=O)NC2=C(c3ccc(C)cc3)C(F)(F)C(c3ccc(OCCCCC(F)(F)F)cc3)(C(F)(F)F)NC2=O)cc1` (stereo not shown) [Example 164], the IC50 is 162 nM. For the compound `Cc1ccc(C2=C(NC(=O)c3ccccc3Cl)C(=O)NC(c3ccc(OCCCC(F)(F)F)cc3)(C(F)(F)F)C2)cc1` (stereo not shown) [Example 168], the IC50 came to 113 nM. The same measure for `Cc1ccc(C2=C(NC(=O)c3cccc(Cl)c3)C(=O)NC(c3ccc(OCCCC(F)(F)F)cc3)(C(F)(F)F)C2)cc1` (stereo not shown) [Example 169]: 421 nM; for `Cc1ccc(C2=C(NC(=O)c3ccc(F)cc3Cl)C(=O)NC(c3ccc(OCCCC(F)(F)F)cc3)(C(F)(F)F)C2)cc1` (stereo not shown) [Example 170]: 210 nM.

What is called IC50 is the concentration needed to halve the response being measured.
